Measured values taken from ChEMBL document CHEMBL3044871, “Importance of some classes of molecular descriptors on classification of antitumor acridinones using factor analysis” (2012).

These compounds were tested on P388 (assay: Antitumor activity against Mus musculus (mouse) P388 cells xenografted in Mus musculus (mouse) assessed as increase in life span at 25 mg/kg relative to control).
Format: functional

**Q.** For CN(C)CCN(C)c1ccc2nnn3c4ccc(O)cc4c(=O)c1c23, which Activity is on record?
**A.** 10%

**Q.** For CN(C)CCNc1ccc2nnn3c4ccc(O)cc4c(=O)c1c23, which Activity is on record?
**A.** 102%

**Q.** For CN(C)CCCNc1ccc2nnn3c4ccc(O)cc4c(=O)c1c23, which Activity is on record?
**A.** 165%

The compounds below were run on P388 (assay: Antitumor activity against Mus musculus (mouse) P388 cells xenografted in Mus musculus (mouse) assessed as increase in life span at 100 mg/kg relative to control).
Format: functional

**Q.** Which Activity does the source give for Cc1ccc2c(c1)c(=O)c1c(NCCCN(C)C)ccc3nnn2c31 here?
**A.** 18%

**Q.** Which Activity does the source give for CN(C)CCNc1ccc2nnn3c4ccccc4c(=O)c1c23 here?
**A.** 77%

The compounds below were run on P388 (assay: Antitumor activity against Mus musculus (mouse) P388 cells xenografted in Mus musculus (mouse) assessed as increase in life span relative to control).
Format: functional
Design: concentration or dose not given beside the values

**Q.** For CCN(CC)CCCCCNc1ccc2ncn3c4ccc(C)cc4c(=O)c1c23, which Activity is on record?
**A.** 20%

**Q.** Which Activity does the source give for CN(C)CCCCCNc1ccc2ncn3c4ccccc4c(=O)c1c23 here?
**A.** 10%

**Q.** For CN(C)CCNc1ccc2ncn3c4ccc(O)cc4c(=O)c1c23, which Activity is on record?
**A.** 110%

**Q.** CN(C)CCCNc1ccc2ncn3c4ccccc4c(=O)c1c23 was tested. Which Activity did it give?
**A.** 25%

**Q.** How did the Activity turn out when CN(C)CCCNc1ccc2ncn3c4ccc(O)cc4c(=O)c1c23 was run?
**A.** 120%

**Q.** For CCN(CC)CCNc1ccc2ncn3c4ccc(OC)cc4c(=O)c1c23, which Activity is on record?
**A.** 96%

**Q.** For CCN(CC)CCNc1ccc2ncn3c4ccccc4c(=O)c1c23, which Activity is on record?
**A.** 55%

**Q.** How did the Activity turn out when CCN(CC)CCNc1ccc2ncn3c4ccc(O)cc4c(=O)c1c23 [C-1311] was run?
**A.** 93%

**Q.** For CN(C)CCNc1ccc2ncn3c4ccccc4c(=O)c1c23, which Activity is on record?
**A.** 90%

**Q.** Which Activity does the source give for CCN(CC)CCNc1ccc2ncn3c4cc(O)ccc4c(=O)c1c23 here?
**A.** 27%

**Q.** CCN(CC)CCNc1ccc2nc(C)n3c4ccc(O)cc4c(=O)c1c23 was tested. Which Activity did it give?
**A.** 185%

**Q.** Which Activity does the source give for CCNCCNc1ccc2nnn3c4ccc(O)cc4c(=O)c1c23 here?
**A.** 78%

**Q.** How did the Activity turn out when CCN(CC)CCNc1ccc2ncn3c4ccc(C(C)(C)C)cc4c(=O)c1c23 was run?
**A.** 0%

**Q.** CN(C)CCNc1ccc2nnn3c4ccc(C(C)(C)C)cc4c(=O)c1c23 was tested. Which Activity did it give?
**A.** 0%

**Q.** For CN(C)CCCCCNc1ccc2ncn3c4ccc(O)cc4c(=O)c1c23, which Activity is on record?
**A.** 85%
